Laboratory results: patent US7781428B2 (Pfizer Inc., priority 2006, dated 2010)

Molecular target: T1, mineralocorticoid receptor (MR) (Homo sapiens, UniProt P08235)
T1 construct: expressed in transfected cells; host or cells: Huh7 (human liver cells)
T1 sequence (P08235 726-964 limits assumed): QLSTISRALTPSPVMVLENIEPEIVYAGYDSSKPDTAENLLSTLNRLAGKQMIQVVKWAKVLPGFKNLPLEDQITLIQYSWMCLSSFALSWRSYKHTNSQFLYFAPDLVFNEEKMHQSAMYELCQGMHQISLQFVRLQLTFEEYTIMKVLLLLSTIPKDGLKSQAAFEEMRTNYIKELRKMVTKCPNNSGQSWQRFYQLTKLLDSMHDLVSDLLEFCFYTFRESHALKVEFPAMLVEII
Assay: Cell-based Gal4 response element-controlled luciferase reporter assay (MR antagonism)
Conditions: Huh7 human liver cells transfected with Gal4 DBD-MR LBD fusion and luciferase reporter; block of agonist-induced activation; overnight incubation
Procedure, shortened: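 Transiently transfected Huh7 cells were treated with agonist at 70-80% of full activation plus compounds for 18-20 h in medium with charcoal/dextran-stripped serum. Luciferase read-out was normalized to β-galactosidase (ONPG, OD420); IC50 came from curve fitting.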

SMILES	IC50 [nM]
Cc1cc(N2N=C3c4ccc(C(=O)O)cc4CC[C@@H]3[C@@H]2c2ccc(F)cc2)ccc1C#N [Example 7, (3R,3aR)-2-(4-cyano-3-methylphenyl)-3-(4-fluorophenyl)-3,3a,4,5-tetrahydro-2H-benzo[g]indazole-7-carboxylic acid]	17.2
Cc1ncc(C2C3CCc4cc(C(=O)NCCS(C)(=O)=O)ccc4C3=NN2c2ccc(C#N)c(Cl)c2)s1 (stereo not shown) [Example 118, 2-(3-chloro-4-cyanophenyl)-N-[2-(methylsulfonyl)ethyl]-3-(2-methyl-1,3-thiazol-5-yl)-3,3a,4,5-tetrahydro-2H-benzo[g]indazole-7-carboxamide]	19
N#Cc1ccc(N2N=C3c4ccc(C(=O)O)cc4CCC3C2c2ccc(F)cc2)cc1Cl (racemic) [Example 2, 2-(3-chloro-4-cyanophenyl)-3-(4-fluorophenyl)-3,3a,4,5-tetrahydro-2H-benzo[g]indazole-7-carboxylic acid]	223
N#Cc1ccc(N2N=C3c4ccc(C(=O)O)cc4OC[C@H]3[C@H]2c2ccc(F)cc2)cc1 [Example 60, (3S,3aS)-2-(4-cyanophenyl)-3-(4-fluorophenyl)-2,3,3a,4-tetrahydrochromeno[4,3-c]pyrazole-7-carboxylic acid]	> 1000
N#Cc1ccc(N2N=C3c4ccc(C(=O)O)cc4CCC3C2C2CCOCC2)cc1Cl (racemic) [Example 36, 2-(3-chloro-4-cyanophenyl)-3-(tetrahydro-2H-pyran-4-yl)-3,3a,4,5-tetrahydro-2H-benzo[g]indazole-7-carboxylic acid]	127
N#Cc1ccc(N2N=C3c4ccc(C(=O)O)cc4CC[C@@H]3[C@@H]2c2ccoc2)cc1Cl [Example 47, (3R,3aR)-2-(3-chloro-4-cyanophenyl)-3-(3-furyl)-3,3a,4,5-tetrahydro-2H-benzo[g]indazole-7-carboxylic acid]	18
Cc1ccc(C2C3CCc4cc(C(=O)O)ccc4C3=NN2c2ccc(C#N)c(Cl)c2)o1 (racemic) [Example 39]	22
